The values that follow come from patent US20120149718A1, “Amido Compounds” (priority 2010, published 2012).

This assay concerns the target T1, human P2X7 (Homo sapiens, UniProt Q99572).
T1 construct: 1321N1 cells stably expressing the full length human P2X7 gene (1321N1-hP2X7)
T1 sequence (Q99572 1-595): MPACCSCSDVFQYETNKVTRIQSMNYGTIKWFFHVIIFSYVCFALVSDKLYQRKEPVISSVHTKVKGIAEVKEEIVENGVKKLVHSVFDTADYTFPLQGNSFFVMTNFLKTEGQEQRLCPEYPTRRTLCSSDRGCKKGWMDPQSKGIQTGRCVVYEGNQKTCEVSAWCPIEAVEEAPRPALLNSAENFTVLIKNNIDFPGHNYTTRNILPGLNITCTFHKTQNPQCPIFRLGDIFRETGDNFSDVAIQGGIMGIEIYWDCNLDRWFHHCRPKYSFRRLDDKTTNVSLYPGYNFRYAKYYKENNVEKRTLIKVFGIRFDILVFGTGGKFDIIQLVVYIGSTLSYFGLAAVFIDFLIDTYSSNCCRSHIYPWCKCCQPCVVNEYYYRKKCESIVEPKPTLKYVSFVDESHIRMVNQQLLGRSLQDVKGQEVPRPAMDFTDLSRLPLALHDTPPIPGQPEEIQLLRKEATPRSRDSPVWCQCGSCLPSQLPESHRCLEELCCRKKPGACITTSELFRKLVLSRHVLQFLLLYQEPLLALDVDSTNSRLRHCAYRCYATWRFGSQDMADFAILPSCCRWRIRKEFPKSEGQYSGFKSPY
Briefly: Intracellular Calcium Flux (FLIPR) Assay. It is filed as cell-based. The conditions noted are these: 1321N1 cells stably expressing full length human P2X7; agonist 100 μM BzATP; fluo-3 calcium flux; read-out: FLIPR pIC50 hP2X7-1321n1 (converted). The protocol:
Stock solutions of compounds were prepared from powders as a 10 mM DMSO stock solution. These solutions were stored at RT during the two week period of these experiments to prevent freeze-thaw of the DMSO stocks. The DMSO stocks were added to the appropriate assay buffer at a concentration of 10 μM, and then diluted serially to the final concentrations that were tested. No observable precipitate was formed at any time during this process. The aqueous solutions of compounds as well as ATP (Sigma A7699) and BzATP (Sigma B6396) were prepared fresh for each day of experiment.
1321N1 cells stably expressing the full length human P2X7 gene (1321N1-hP2X7) and HEK293 cells stably expressing the full length rat P2X7 gene (HEK293-rP2X7) were obtained from the Roche Cell Culture Facility. 1321N1-hP2X7 cells were grown in Dulbecco's Modified Eagle's Medium (DMEM) high glucose supplemented with 10% FBS and 250 μg/mL G418. HEK293-rP2X7 cells were grown in DMEM/F-12 supplemented with 10% FBS, 1 mM CaCl2, 2 mM MgCl2, 2 mM L-Glutamine and 500 μg/ml G418. Cells were split such that they never became >70% confluent.
On the day prior to the experiment, 1321N1-hP2X7 or HEK293-rP2X7 cells were released into suspension with calcium-free PBS+Versene and washed by centrifugation with calcium-free PBS to remove the Versene. Cells were resuspended in growth medium at a density of 2.5×10^5 cells/mL and seeded into black walled, clear bottom 96 well plates (50,000 cells/well) approximately 18 hr prior to intracellular calcium flux experiments.
On the day of the experiment, plates were washed with FLIPR buffer (calcium- and magnesium-free Hank's Balanced Salt Solution (HBSS) supplemented with 10 mM Hepes, 2.5 mM probenecid and 2 mM calcium chloride) using a BIO-TEK 96 channel plate washer and incubated with […] fluo-3 dye at 37° C. for one hr. The dye was then removed by plate washing and the cells were allowed to equilibrate for 20 min at room temperature with antagonist or vehicle (FLIPR buffer). Agonist (100 μM BzATP final concentration for hP2X7; 5 μM BzATP final concentration or rP2X7) was added online with the FLIPR and fluorescence measurements made at 1 sec intervals for 60 sec followed by 3 sec intervals for a further 4 min (5 min total). A final addition of 5 μM ionomycin was made and the maximal BzATP-evoked fluorescence normalized to the maximal ionomycin-evoked fluorescence.

With `CS(=O)(=O)c1ccc(C(Cc2ccc(F)cc2)C(=O)Nc2cnc(CO)cn2)cc1` (centres unmarked) [Compound I-16, 3-(4-Fluoro-phenyl)-N-(5-hydroxymethyl-pyrazin-2-yl)-2-(4-methanesulfonyl-phenyl)-propionamide], the IC50 was 117 nM. Consider `CS(=O)(=O)c1ccc(C(Cc2ccc(F)cc2)C(=O)Nc2nc3cc(Cl)ccc3o2)cc1` (centres unmarked) [Compound I-39, N-(5-Chloro-benzooxazol-2-yl)-3-(4-fluoro-phenyl)-2-(4-methanesulfonyl-phenyl)-propionamide], for which the IC50 is 126 nM. Turning to `COc1ccc2oc(NC(=O)C(Cc3ccc(F)cc3)c3ccc(S(C)(=O)=O)cc3)nc2c1` (centres unmarked) [Compound I-44, 3-(4-Fluoro-phenyl)-2-(4-methanesulfonyl-phenyl)-N-(5-methoxy-benzooxazol-2-yl)-propionamide], the IC50 was 75.9 nM. Consider `Cc1ccccc1C[C@H](C(=O)Nc1nc2ccccc2o1)c1ccc(S(C)(=O)=O)cc1` [Compound I-10, (S)—N-Benzooxazol-2-yl-2-(4-methanesulfonyl-phenyl)-3-o-tolyl-propionamide], for which the IC50 is 427 nM. The value for `CC(=O)OCc1cnc(NC(=O)C(Cc2ccc(F)cc2)c2ccc(S(C)(=O)=O)cc2)cn1` (centres unmarked) [Compound I-49, Acetic acid 5-[3-(4-fluoro-phenyl)-2-(4-methanesulfonyl-phenyl)-propionylamino]-pyrazin-2-ylmethyl ester] was 871 nM; that for `Cc1ccc2oc(NC(=O)C(Cc3ccc(F)cc3)c3ccc(S(C)(=O)=O)cc3)nc2c1` (centres unmarked) [Compound I-37, 3-(4-Fluoro-phenyl)-2-(4-methanesulfonyl-phenyl)-N-(5-methyl-benzooxazol-2-yl)-propionamide] was 166 nM; that for `Cc1ccc2nc(NC(=O)C(Cc3ccc(F)cc3)c3ccc(S(C)(=O)=O)cc3)oc2c1` (centres unmarked) [Compound I-36, 3-(4-Fluoro-phenyl)-2-(4-methanesulfonyl-phenyl)-N-(6-methyl-benzooxazol-2-yl)-propionamide] was 191 nM. As for `CS(=O)(=O)c1ccc(C(Cc2ccc(F)cc2)C(=O)Nc2nc3cc(C(F)(F)F)ccc3o2)cc1` (centres unmarked) [Compound I-41, 3-(4-Fluoro-phenyl)-2-(4-methanesulfonyl-phenyl)-N-(5-trifluoromethyl-benzooxazol-2-yl)-propionamide], the IC50 was 115 nM. The result for `CC(C)(O)c1cnc(NC(=O)C(Cc2ccc(F)cc2)c2ccc(S(C)(=O)=O)cc2)cn1` (centres unmarked) [Compound I-17, 3-(4-Fluoro-phenyl)-N-[5-(1-hydroxy-1-methyl-ethyl)-pyrazin-2-yl]-2-(4-methanesulfonyl-phenyl)-propionamide] reads 1070 nM. For `O=C(Nc1nc2ccccc2o1)C(Cc1ccc(F)cc1)c1ccc(F)cc1` (centres unmarked) [Compound I-28, N-Benzooxazol-2-yl-2,3-bis-(4-fluoro-phenyl)-propionamide], the IC50 was 437 nM. The value for `CS(=O)(=O)c1ccc(C(Cc2ccc(F)cc2)C(=O)Nc2nc3cnccc3o2)cc1` (centres unmarked) [Compound I-51, 3-(4-Fluoro-phenyl)-2-(4-methanesulfonyl-phenyl)-N-oxazolo[4,5-c]pyridin-2-yl-propionamide] was 31.6 nM; that for `Cc1cc(C)c2oc(NC(=O)C(Cc3ccc(F)cc3)c3ccc(S(C)(=O)=O)cc3)nc2c1` (centres unmarked) [Compound I-43, N-(5,7-Dimethyl-benzooxazol-2-yl)-3-(4-fluoro-phenyl)-2-(4-methanesulfonyl-phenyl)-propionamide] was 102 nM. In the case of `CS(=O)(=O)c1ccc(C(Cc2ccc(F)cc2)C(=O)Nc2nc3ccc(Cl)cc3o2)cc1` (centres unmarked) [Compound I-38, N-(6-Chloro-benzooxazol-2-yl)-3-(4-fluoro-phenyl)-2-(4-methanesulfonyl-phenyl)-propionamide], the IC50 is 316 nM.

On to `Cc1cccc2oc(NC(=O)C(Cc3ccc(F)cc3)c3ccc(S(C)(=O)=O)cc3)nc12` (centres unmarked) [Compound I-35, 3-(4-Fluoro-phenyl)-2-(4-methanesulfonyl-phenyl)-N-(4-methyl-benzooxazol-2-yl)-propionamide], for which the IC50 was 468 nM.

As to `CS(=O)(=O)c1ccc(C(Cc2ccc(F)cc2)C(=O)Nc2nc3ccncc3o2)cc1` (centres unmarked) [Compound I-52, 3-(4-Fluoro-phenyl)-2-(4-methanesulfonyl-phenyl)-N-oxazolo[5,4-c]pyridin-2-yl-propionamide], the IC50 was 66.1 nM. Consider `Cc1cccc2nc(NC(=O)C(Cc3ccc(F)cc3)c3ccc(S(C)(=O)=O)cc3)oc12` (centres unmarked) [Compound I-42, 3-(4-Fluoro-phenyl)-2-(4-methanesulfonyl-phenyl)-N-(7-methyl-benzooxazol-2-yl)-propionamide], for which the IC50 was 28.8 nM. For `COC(=O)c1ccc2nc(NC(=O)C(Cc3ccc(F)cc3)c3ccc(S(C)(=O)=O)cc3)oc2c1` (centres unmarked) [Compound I-45, 2-[3-(4-Fluoro-phenyl)-2-(4-methanesulfonyl-phenyl)-propionylamino]-benzooxazole-6-carboxylic acid methyl ester], the IC50 was 617 nM. `O=C(Nc1nc2ccccc2o1)C(Cc1ccc(F)cc1)c1ccncc1` (centres unmarked) [Compound I-54, N-Benzooxazol-2-yl-3-(4-fluoro-phenyl)-2-pyridin-4-yl-propionamide]: the IC50 was 30.9 nM.

With `CS(=O)(=O)c1ccc(C(Cc2ccc(F)cc2)C(=O)Nc2cnc(Br)cn2)cc1` (centres unmarked) [Compound I-13, N-(5-Bromo-pyrazin-2-yl)-3-(4-fluoro-phenyl)-2-(4-methanesulfonyl-phenyl)-propionamide], the IC50 is 813 nM. The value for `CS(=O)(=O)c1ccc(C(Cc2ccc(F)cc2)C(=O)Nc2nc3ccc(F)cc3o2)cc1` (centres unmarked) [Compound I-40, N-(6-Fluoro-benzooxazol-2-yl)-3-(4-fluoro-phenyl)-2-(4-methanesulfonyl-phenyl)-propionamide] was 38.9 nM. The result for `COCCN(C)Cc1cnc(NC(=O)C(Cc2ccc(F)cc2)c2ccc(S(C)(=O)=O)cc2)cn1` (centres unmarked) [Compound I-23, 3-(4-Fluoro-phenyl)-2-(4-methanesulfonyl-phenyl)-N-(5-{[(2-methoxy-ethyl)-methyl-amino]-methyl}-pyrazin-2-yl)-propionamide] reads 646 nM; that for `CS(=O)(=O)c1ccc(C(Cc2ccc(F)cc2)C(=O)Nc2nc3cc(F)ccc3o2)cc1` (centres unmarked) [Compound I-46, N-(5-Fluoro-benzooxazol-2-yl)-3-(4-fluoro-phenyl)-2-(4-methanesulfonyl-phenyl)-propionamide], 44.7 nM. Regarding `Cc1cc(S(C)(=O)=O)ccc1C(Cc1ccc(F)cc1)C(=O)Nc1nc2ccccc2o1` (centres unmarked) [Compound I-27, N-Benzooxazol-2-yl-3-(4-fluoro-phenyl)-2-(4-methanesulfonyl-2-methyl-phenyl)-propionamide], the IC50 is 204 nM. With `CS(=O)(=O)c1ccc(CC(C(=O)Nc2nc3ccccc3o2)c2ccc(F)cc2)cc1` (centres unmarked) [Compound I-53, N-Benzooxazol-2-yl-2-(4-fluoro-phenyl)-3-(4-methanesulfonyl-phenyl)-propionamide], the IC50 was 407 nM.

Regarding `CS(=O)(=O)c1ccc(C(Cc2ccc(F)cc2)C(=O)Nc2ncc(-c3ccccc3)o2)cc1` (centres unmarked) [Compound I-48, 3-(4-Fluoro-phenyl)-2-(4-methanesulfonyl-phenyl)-N-(5-phenyl-oxazol-2-yl)-propionamide], the IC50 was 295 nM. Turning to `CS(=O)(=O)c1ccc([C@@H](Cc2ccc(F)cc2)C(=O)Nc2cnc(CO)cn2)cc1` [Compound I-50a, (R)-3-(4-Fluoro-phenyl)-N-(5-hydroxymethyl-pyrazin-2-yl)-2-(4-methanesulfonyl-phenyl)-propionamide], the IC50 is 380 nM.
